For experiment [1], the system named is DSS-induced colitis in C57BL/6 mice. In words: DSS-induced colitis murine study, Example 1A (endoscopy, stool consistency, body weight). It is filed as in vivo. The following applies: for mean endoscopy score: INS1007 1 mg/kg PO BID Day -7 to 20, scale 0-4. Here is the method: Mice: Seventy-nine (79) male C57BL/6 mice with an average starting body weight (SEM) of 23.32 g (+1.53 g) were obtained from Charles River Laboratories (Wilmington, Mass.). Animals were acclimatized prior to the study. During this period, the animals were observed daily in order to reject any that presented in poor condition. Animals were fed with 5053 sterile rodent diet and water was provided ad libitum.
INS1007 Solutions: INS1007 was diluted with 0.5% hydroxypropylmethylcellulose in citrate buffer w/0.1% Tween 80 (pH 3.0). Solutions were stored at 4° C. INS1007 solutions were discarded after 3 days and fresh solutions were prepared.
Anti-p40 mAb solution: Anti-mouse IL-12 p40 (Clone: C17.8) obtained from BioXCell (Cat #: BE0051) was diluted with phosphate buffered saline. Solutions were stored at 4° C. Anti-mouse IL-12 p40 solutions were discarded after 7 days and fresh solutions were prepared.
DSS Induction Solution: Dextran sulfate sodium salt obtained from MP Biomedical (Cat #02160110) was diluted with water. DSS solutions were stored at room temperature.
Groups 1-4 were negative controls; groups 5-7 were treated with INS 1007 and Group 8 was treated with Anti-p40 mAb. ^i The dosing protocol for the Anti-p40 antibody is not shown in FIG. 1.
The study included three phases: a pre-treatment period (Veh/1007 Pretx in FIG. 1); DSS-induction period (DSS in FIG. 1) and a treatment period (Veh/1007 in FIG. 1). Colitis was induced in Groups 3-8 by exposure to 3% DSS Induction Solution from Day 0 to Day 5. Animals in Groups 2 and 4-7 were dosed via oral gavage (PO) twice daily (BID) from Days −7 to 20 with INS1007 Solution or vehicle, as indicated in Table 1. Animals in Group 8 were dosed via intraperitoneal (IP) injection once every third day (Q3D) from Day 0 to 18 with Anti-p40 mAb solution.
All animals were weighed daily and assessed visually for the presence of diarrhea and/or bloody stool at the time of dosing. Each mouse, under isoflurane anesthesia, underwent video endoscopy on Days 10, 14, & 21 using a small animal endoscope (Karl Storz Endoskope, Germany), to assess colitis severity. Colitis severity was scored using a 0-4 scale (0=normal; 1=loss of vascularity; 2=loss of vascularity and friability; 3=friability and erosions; 4=ulcerations and bleeding). Stool consistency was scored during endoscopy using the parameters defined in Table 2. Following endoscopy on day 21, all animals from each treatment group were sacrificed.

The test system of the next experiment is neutrophil elastase (NE). In words: Bone marrow neutrophil elastase (NE) activity in lysates from mice of Example 1A. It counts as in vivo, C57BL/6 mice. The following applies: vs vehicle treated control group. Here is the method:
Following euthanasia, bone marrow (from both femurs and tibias) were collected, lysed, and then snap frozen. The frozen tissue was stored at −80° C.
Bone Marrow Neutrophil Activity: The ability of INS1007 to reduce neutrophil activation in DSS-induced colitis in C57BL/6 mice was evaluated. The neutrophil activity of bone marrow extracts taken from the euthanized mice of Example 1A was observed.
All animals from Example 1A had both femurs and tibias removed and bone marrow was aspirated out with ice-cold using Roswell Park Memorial Institute (RPMI) buffer. Cell pellets were collected after red blood cell lysis and wash with PBS. […]
For neutrophil elastase (NE) activity assay, bone marrow cell lysates were added to 96-well black plate and incubated for 15 minutes in the presence of DMSO or NE inhibitor (Abcam, Cat #ab142154). […] The resulting fluorescence was measured at 350 nm excitation and 450 nm emission in a kinetic mode by reading every 5 minutes for up to 3 hours at 37° C. The fluorescence was read using a BioTek Synergy plate reader. The reaction rate was calculated with the initial slopes of the linear range and a standard curve for the natural mouse elastase amounts were plotted against their slopes. The net NE activity (in the unit of natural mouse elastase amount) by subtracting the NE inhibitor control wells from non-inhibited well were calculated based on the standard curve.

In experiment [2] the test system is DSS-induced colitis in C57BL/6 mice. The experiment is described as follows: DSS-induced colitis model, mean over animals of Examples 1A and 1B. It is filed as in vivo. The following applies: vs vehicle control. The method, then: Mean Endoscopy/Stool Consistency Scores and Mean Weight Change: The mean of the endoscopy and stool consistency scores from Days 10 and 14 observed from Examples 1A and 1B was determined to provide a mean endoscopy score and mean stool consistency score for Days 10 and 14 in the DSS-induced colitis model (i.e., mean that includes the animals from Examples 1A and 1B). FIGS. 11A and 12A show the Mean Endoscopy score. FIGS. 11B and 12B show the Mean Stool Consistency score.
The percent change in body weight on Day 14 from Examples 1A and 1B were averaged to provide mean percent body weight change for Day 14 in the DSS-induced colitis model (i.e., mean that includes the animals from Examples 1A and 1B).

On to `Cn1c(=O)oc2ccc(-c3ccc(C[C@@H](C#N)NC(=O)[C@@H]4CNCCCO4)cc3)cc21` [INS1007, (2S)—N-{(1S)-1-cyano-2-[4-(3-methyl-2-oxo-2,3-dihydro-1,3-benzoxazol-5-yl)phenyl]ethyl}-1,4-oxazepane-2-carboxamide], for which the mean endoscopy score in experiment [1] (Day 10, DSS-Vehicle control 2.67) is on record as 2.25; in experiment [1] (Day 14, DSS-Vehicle control 2.79), 1.92; in experiment [1] (Day 21, DSS-Vehicle control 2.36), 2.08. The “weight loss (percentage of starting weight on Day 0)” value in experiment [1] (INS1007 PO BID, vs DSS-vehicle control (peak loss -18.46% Day 11)) was “modestly attenuated weight loss”. Also, in experiment [1] (INS1007 at all three concentrations (0.1, 1, 10 mg/kg PO BID), Days 10, 14, 21, particularly Days 14 and 21), the stool consistency scores result is “modest decreases in stool scores”. Moreover, the “bone marrow neutrophil activity (NE activity)” value in the experiment on neutrophil elastase (NE) (INS1007 1 mg/kg PO BID) and in the experiment with neutrophil elastase (NE) (INS1007 10 mg/kg PO BID) was “significantly reduced” throughout. The “mean endoscopy score (Examples 1A and 1B)” value in experiment [2] (Day 10, 0.3 mg/kg) was “significantly reduced”; in experiment [2] (Day 10, 3 mg/kg) it was “significantly reduced”. Further, in experiment [2] (Day 10, 0.3 mg/kg), the “mean stool consistency score (Examples 1A and 1B)” value is recorded as “significantly reduced”. In experiment [2] (Day 14, 0.3 mg/kg), the “average mean endoscopy score (Examples 1A and 1B)” value is recorded as “significantly reduced”. For the same compound, in experiment [2] (Day 14, 0.3 mg/kg, lost less weight), the “average mean weight change (percent body weight change, Examples 1A and 1B)” value is “significantly reduced”. Moreover, the “stool consistency score (Examples 1A and 1B)” value in experiment [2] (Day 14, 3 mg/kg) is listed as “significantly reduced”.

The record behind these values is patent US20210252015A1, “CERTAIN (2S)-N-[(1S)-1-CYANO-2-PHENYLETHYL]-1,4-OXAZEPANE-2-CARBOXAMIDES FOR TREATING INFLAMMATORY BOWEL DISEASE” (Insmed Incorporated, priority 2018, published 2021).
